Measured values from ChEMBL document CHEMBL6134864, “Discovery of FLT3-ITD Inhibitor Clifutinib: A Novel Biphenylacetylene Urea Derivative in Clinical Trials for the Treatment of Relapsed/Refractory FLT3-ITD+ Acute Myeloid Leukemia” (J Med Chem, 2025).
The source made the active and inactive calls. The rule behind the calls is not given here.

Legend:
[1] = test system: Receptor-type tyrosine-protein kinase FLT3 (Homo sapiens), P36888 [UNDEFINED MUTATION]; experiment: Inhibition of FLT3 in human MV4-11 cells harbouring FLT3-ITD mutant assessed as effect on FLT3 protein level at 1 to 1000 nM measured after 2 hrs by Western blot analysis; type: cell-based; conditions: dose 1-1000 nM
Receptor-type tyrosine-protein kinase FLT3 (Homo sapiens), P36888 [UNDEFINED MUTATION], sequence (P36888 whole entry, looked up, change not shown): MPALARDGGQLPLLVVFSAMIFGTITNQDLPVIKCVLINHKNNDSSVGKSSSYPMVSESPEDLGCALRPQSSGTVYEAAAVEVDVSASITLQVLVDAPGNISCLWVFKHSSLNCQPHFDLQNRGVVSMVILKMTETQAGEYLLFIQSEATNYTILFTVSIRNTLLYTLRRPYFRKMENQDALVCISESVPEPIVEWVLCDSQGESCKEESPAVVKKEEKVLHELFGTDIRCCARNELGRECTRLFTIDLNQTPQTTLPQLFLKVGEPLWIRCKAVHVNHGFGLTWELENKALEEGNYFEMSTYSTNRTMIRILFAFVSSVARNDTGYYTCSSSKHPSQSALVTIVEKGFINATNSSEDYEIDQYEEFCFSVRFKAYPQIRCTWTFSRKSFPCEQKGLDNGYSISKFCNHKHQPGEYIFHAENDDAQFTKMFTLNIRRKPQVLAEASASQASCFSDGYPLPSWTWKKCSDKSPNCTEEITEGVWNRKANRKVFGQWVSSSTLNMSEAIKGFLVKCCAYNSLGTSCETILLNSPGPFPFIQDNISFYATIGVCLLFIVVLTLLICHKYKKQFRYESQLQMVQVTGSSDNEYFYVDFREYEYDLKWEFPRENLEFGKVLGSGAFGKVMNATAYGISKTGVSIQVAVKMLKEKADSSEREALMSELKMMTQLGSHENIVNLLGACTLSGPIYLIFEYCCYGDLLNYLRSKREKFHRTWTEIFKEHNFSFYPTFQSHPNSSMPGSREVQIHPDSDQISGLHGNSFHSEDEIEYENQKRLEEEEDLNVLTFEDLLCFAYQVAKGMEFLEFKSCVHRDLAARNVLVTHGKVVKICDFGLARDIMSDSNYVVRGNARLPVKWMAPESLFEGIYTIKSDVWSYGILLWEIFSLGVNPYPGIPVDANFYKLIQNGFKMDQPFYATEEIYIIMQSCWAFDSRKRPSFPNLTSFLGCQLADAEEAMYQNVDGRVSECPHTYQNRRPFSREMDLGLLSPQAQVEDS

[2] = Clearance in rat plasma at 5 mg/kg, po measured up to 24 hrs by LC-MS/MS analysis; type: ADME, organism-based
[3] = Tmax in NOD/SCID mouse plasma xenografted with human MV4-11 cells at 0.5 mg/kg, po measured up to 24 hrs by LC-MS/MS analysis; type: ADME, organism-based
[4] = Tmax in NOD/SCID mouse plasma xenografted with human MV4-11 cells at 4.5 mg/kg, po measured up to 24 hrs by LC-MS/MS analysis; type: ADME, organism-based
[5] = molecular target: Proto-oncogene tyrosine-protein kinase receptor Ret (Homo sapiens, UniProt P07949); experiment: Inhibition of human RET by biochemical kinase binding assay
Proto-oncogene tyrosine-protein kinase receptor Ret, sequence (P07949 whole entry): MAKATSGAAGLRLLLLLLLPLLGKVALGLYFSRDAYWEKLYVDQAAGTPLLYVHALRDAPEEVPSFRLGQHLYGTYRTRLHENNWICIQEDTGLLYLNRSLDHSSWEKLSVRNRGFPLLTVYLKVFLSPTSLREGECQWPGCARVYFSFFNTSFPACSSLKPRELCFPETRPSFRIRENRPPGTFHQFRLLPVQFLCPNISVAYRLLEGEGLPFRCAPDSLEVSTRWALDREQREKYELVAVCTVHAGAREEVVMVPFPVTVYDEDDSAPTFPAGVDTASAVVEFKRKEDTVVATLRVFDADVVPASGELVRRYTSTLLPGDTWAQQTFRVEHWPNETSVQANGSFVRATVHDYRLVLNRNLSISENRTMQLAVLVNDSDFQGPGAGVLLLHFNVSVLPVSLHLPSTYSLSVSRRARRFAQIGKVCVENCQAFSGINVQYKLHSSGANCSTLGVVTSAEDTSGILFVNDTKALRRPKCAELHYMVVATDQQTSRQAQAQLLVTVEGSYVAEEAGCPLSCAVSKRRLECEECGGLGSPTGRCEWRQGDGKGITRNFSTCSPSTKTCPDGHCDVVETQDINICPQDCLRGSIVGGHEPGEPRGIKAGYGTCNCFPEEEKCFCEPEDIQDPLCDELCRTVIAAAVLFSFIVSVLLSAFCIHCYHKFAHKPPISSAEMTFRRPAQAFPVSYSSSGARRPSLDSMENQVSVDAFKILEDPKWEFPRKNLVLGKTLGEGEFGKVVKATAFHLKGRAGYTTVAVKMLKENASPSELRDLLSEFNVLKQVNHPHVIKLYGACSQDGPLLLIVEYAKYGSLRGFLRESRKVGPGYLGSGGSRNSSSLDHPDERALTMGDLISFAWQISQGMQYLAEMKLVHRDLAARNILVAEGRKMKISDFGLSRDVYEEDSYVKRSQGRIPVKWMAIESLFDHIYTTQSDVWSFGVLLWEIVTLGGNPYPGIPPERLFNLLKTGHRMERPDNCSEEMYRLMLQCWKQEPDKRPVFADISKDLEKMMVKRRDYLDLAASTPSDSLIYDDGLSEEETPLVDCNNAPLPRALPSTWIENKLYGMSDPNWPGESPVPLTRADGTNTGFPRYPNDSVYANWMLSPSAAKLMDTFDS

[6] = Antitumor activity against human […] cells harbouring FLT3-ITD xenografted in NOD/SCID mouse model assessed as tumor regression rate at 1.5 to 4.5 mg/kg/day, po administered for 21 days and measured for 31 days post dose by caliper analysis relative to control; type: functional, MV4-11; conditions: dose lower […], dose upper 4.5 mg/kg/day, time 52 day
[7] = test system: SW-620; experiment: cells; conditions: Homo sapiens, SW-620, 72 h
Description: Antiproliferative activity against human SW620 cells assessed as inhibition of cell growth incubated for 72 hrs by celltiter-glo luminescent cell viability assay

[8] = test system: RS4-11; experiment: cells; conditions: Homo sapiens, RS4-11, 72 h
Description: Antiproliferative activity against human RS4;11 cells assessed as inhibition of cell growth incubated for 72 hrs by celltiter-glo luminescent cell viability assay

[9] = molecular target: Cytochrome P450 2D6 (Homo sapiens, UniProt P10635); experiment: Inhibition of CYP2D6 in human liver microsomes by UPLC-MS/MS analysis; type: ADME, Microsome
Cytochrome P450 2D6, sequence (P10635 whole entry): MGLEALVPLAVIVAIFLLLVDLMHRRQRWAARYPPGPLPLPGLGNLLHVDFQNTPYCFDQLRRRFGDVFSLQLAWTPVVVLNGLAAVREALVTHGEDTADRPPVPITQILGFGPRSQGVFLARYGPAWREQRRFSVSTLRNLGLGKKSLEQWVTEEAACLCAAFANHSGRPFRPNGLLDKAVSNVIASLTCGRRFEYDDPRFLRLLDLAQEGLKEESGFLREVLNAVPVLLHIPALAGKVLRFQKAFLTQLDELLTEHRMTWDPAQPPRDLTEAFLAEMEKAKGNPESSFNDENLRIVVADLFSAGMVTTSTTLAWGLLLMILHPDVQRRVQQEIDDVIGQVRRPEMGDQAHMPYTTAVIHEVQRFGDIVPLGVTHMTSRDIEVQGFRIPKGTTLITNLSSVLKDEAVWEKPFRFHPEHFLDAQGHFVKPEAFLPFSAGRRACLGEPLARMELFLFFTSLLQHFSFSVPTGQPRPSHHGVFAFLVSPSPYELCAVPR

[10] = AUC last in dog plasma at 5 mg/kg, po measured up to 24 hrs by LC-MS/MS analysis; type: ADME, organism-based, Canis lupus familiaris
[11] = Clearance in mouse plasma at 2 mg/kg, iv measured up to 24 hrs by LC-MS/MS analysis; type: ADME, organism-based
[12] = molecular target: Cytochrome P450 2B6 (Homo sapiens, UniProt P20813); experiment: Inhibition of CYP2B6 in human liver microsomes by UPLC-MS/MS analysis; type: ADME, Microsome
Cytochrome P450 2B6, sequence (P20813 whole entry): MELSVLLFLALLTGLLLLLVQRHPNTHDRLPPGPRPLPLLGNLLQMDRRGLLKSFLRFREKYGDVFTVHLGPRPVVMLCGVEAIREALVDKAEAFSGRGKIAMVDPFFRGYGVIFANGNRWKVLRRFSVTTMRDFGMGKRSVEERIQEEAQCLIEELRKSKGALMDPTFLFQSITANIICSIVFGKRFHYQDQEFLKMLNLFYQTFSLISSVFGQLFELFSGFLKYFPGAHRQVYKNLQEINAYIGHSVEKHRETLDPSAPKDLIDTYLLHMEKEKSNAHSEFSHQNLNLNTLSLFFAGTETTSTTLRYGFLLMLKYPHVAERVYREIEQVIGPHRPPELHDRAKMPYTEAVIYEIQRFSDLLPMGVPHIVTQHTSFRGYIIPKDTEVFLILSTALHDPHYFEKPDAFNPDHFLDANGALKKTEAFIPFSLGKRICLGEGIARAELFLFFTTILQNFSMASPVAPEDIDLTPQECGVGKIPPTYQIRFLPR

[13] = molecular target: Mast/stem cell growth factor receptor Kit (Homo sapiens, UniProt P10721); experiment: Inhibition of human KIT by biochemical kinase binding assay
Mast/stem cell growth factor receptor Kit, sequence (P10721 whole entry): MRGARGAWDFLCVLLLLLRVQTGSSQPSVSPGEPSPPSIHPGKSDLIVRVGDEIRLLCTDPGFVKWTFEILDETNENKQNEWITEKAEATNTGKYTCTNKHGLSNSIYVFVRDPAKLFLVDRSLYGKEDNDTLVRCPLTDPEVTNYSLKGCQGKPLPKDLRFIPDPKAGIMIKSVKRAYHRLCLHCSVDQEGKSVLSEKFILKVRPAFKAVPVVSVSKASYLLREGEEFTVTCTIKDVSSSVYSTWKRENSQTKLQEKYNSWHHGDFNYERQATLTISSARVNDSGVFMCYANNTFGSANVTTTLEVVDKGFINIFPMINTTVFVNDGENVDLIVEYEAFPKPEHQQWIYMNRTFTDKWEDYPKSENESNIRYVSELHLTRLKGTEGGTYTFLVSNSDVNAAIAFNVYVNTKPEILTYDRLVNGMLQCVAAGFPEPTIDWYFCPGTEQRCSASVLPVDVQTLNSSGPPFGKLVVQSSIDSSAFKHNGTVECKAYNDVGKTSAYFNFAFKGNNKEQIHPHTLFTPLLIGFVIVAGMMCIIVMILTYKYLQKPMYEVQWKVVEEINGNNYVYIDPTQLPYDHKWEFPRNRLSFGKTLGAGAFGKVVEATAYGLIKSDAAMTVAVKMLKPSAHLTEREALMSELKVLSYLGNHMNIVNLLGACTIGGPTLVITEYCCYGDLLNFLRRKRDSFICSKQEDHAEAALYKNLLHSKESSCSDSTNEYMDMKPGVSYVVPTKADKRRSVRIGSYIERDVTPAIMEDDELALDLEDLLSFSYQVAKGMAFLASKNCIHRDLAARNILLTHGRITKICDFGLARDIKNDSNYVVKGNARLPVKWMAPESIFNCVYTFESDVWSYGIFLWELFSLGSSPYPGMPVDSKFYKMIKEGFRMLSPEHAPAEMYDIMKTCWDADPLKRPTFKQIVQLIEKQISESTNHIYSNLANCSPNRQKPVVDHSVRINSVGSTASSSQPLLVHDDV

[14] = test system: MOLT-4; experiment: cells; conditions: Homo sapiens, MOLT-4, 72 h
Description: Antiproliferative activity against human MOLT-4 cells assessed as inhibition of cell growth incubated for 72 hrs by celltiter-glo luminescent cell viability assay

[15] = Volume of distribution at steady state in mouse plasma at 2 mg/kg, iv measured up to 24 hrs by LC-MS/MS analysis; type: ADME, organism-based; conditions: read-out: Vdss
[16] = AUClast in rat plasma at 5 mg/kg, po measured up to 24 hrs by LC-MS/MS analysis; type: ADME, organism-based
[17] = Tmax in NOD/SCID mouse tumor xenografted with human MV4-11 cells at 4.5 mg/kg, po measured up to 24 hrs by LC-MS/MS analysis; type: ADME, organism-based, Neoplasm
[18] = test system: NCI-H226; experiment: cells; conditions: Homo sapiens, NCI-H226, 72 h
Description: Antiproliferative activity against human NCI-H226 cells assessed as inhibition of cell growth incubated for 72 hrs by celltiter-glo luminescent cell viability assay

[19] = Volume of distribution at steady state in monkey plasma at 1 mg/kg, iv measured up to 24 hrs by LC-MS/MS analysis; type: ADME, organism-based, Macaca mulatta; conditions: rhesus monkey, read-out: Vdss
[20] = Oral bioavailability in mouse plasma at 10 mg/kg measured up to 24 hrs by LC-MS/MS analysis; type: ADME, organism-based
[21] = Cmax in monkey plasma at 5 mg/kg, po measured up to 24 hrs by LC-MS/MS analysis; type: ADME, organism-based, Macaca mulatta; conditions: rhesus monkey
[22] = Toxicity in NOD/SCID mouse assessed as effect on body weight loss at 0.5 to 4.5 mg/kg/day, po administered for 21 days and measured for 31 days post dose; type: organism-based; conditions: in vivo, 504 h, dose 0.5-4.5 mg/kg/day, time 21 day
[23] = Tmax in NOD/SCID mouse tumor xenografted with human MV4-11 cells at […], po measured up to 24 hrs by LC-MS/MS analysis; type: ADME, organism-based, Neoplasm; conditions: dose 1.5 mg/kg
[24] = Cmax in NOD/SCID mouse plasma xenografted with human MV4-11 cells at 4.5 mg/kg, po measured up to 24 hrs by LC-MS/MS analysis; type: ADME, organism-based
[25] = Tmax in mouse plasma at 10 mg/kg, po measured up to 24 hrs by LC-MS/MS analysis; type: ADME, organism-based
[26] = AUC (0 to t) in NOD/SCID mouse tumor xenografted with human MV4-11 cells at 0.5 mg/kg, po measured up to 24 hrs by LC-MS/MS analysis; type: ADME, organism-based, Neoplasm
[27] = test system: Receptor-type tyrosine-protein kinase FLT3 (Homo sapiens), P36888 [UNDEFINED MUTATION]; experiment: Inhibition of FLT3 in human MV4-11 cells harbouring FLT3-ITD mutant assessed as inhibition of STAT5 phosphorylation level measured after 2 hrs by Western blot analysis; type: cell-based; conditions: dose 1-1000 nM
[28] = Half life in monkey plasma at 1 mg/kg, iv measured up to 24 hrs by LC-MS/MS analysis; type: ADME, organism-based, Macaca mulatta; conditions: rhesus monkey
[29] = Cmax in monkey plasma at 1 mg/kg, iv measured up to 24 hrs by LC-MS/MS analysis; type: ADME, organism-based, Macaca mulatta; conditions: rhesus monkey
[30] = Oral bioavailability in rat plasma at 5 mg/kg measured up to 24 hrs by LC-MS/MS analysis; type: ADME, organism-based
[31] = test system: BaF3; experiment: Antiproliferative activity against mouse BaF3 cells harbouring FLT3-ITD-Y842R mutant assessed as inhibition of cell growth incubated for 72 hrs by celltiter-glo luminescent cell viability assay; type: functional, cell-based; conditions: BaF3, 72 h
[32] = molecular target: Cytochrome P450 1A2 (Homo sapiens, UniProt P05177); experiment: Inhibition of CYP1A2 in human liver microsomes by UPLC-MS/MS analysis; type: ADME, Microsome
Cytochrome P450 1A2, sequence (P05177 whole entry): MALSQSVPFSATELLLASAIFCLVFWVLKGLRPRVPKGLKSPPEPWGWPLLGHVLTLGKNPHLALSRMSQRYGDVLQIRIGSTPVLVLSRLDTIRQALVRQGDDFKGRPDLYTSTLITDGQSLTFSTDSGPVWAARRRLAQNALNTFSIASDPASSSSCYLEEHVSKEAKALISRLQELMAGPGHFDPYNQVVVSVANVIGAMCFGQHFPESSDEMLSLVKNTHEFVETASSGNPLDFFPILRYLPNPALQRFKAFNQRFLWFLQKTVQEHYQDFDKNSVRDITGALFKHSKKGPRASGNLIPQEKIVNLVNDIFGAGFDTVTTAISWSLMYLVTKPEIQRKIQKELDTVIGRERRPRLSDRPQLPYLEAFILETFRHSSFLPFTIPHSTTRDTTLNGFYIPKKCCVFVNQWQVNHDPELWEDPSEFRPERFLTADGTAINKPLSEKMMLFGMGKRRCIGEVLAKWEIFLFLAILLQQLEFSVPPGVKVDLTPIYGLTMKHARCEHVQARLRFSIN

[33] = test system: BaF3; experiment: Antiproliferative activity against wild type mouse BaF3 cells assessed as inhibition of cell growth incubated for 72 hrs by celltiter-glo luminescent cell viability assay; type: functional, cell-based; conditions: BaF3, 72 h
[34] = AUC (0 to t) in NOD/SCID mouse tumor xenografted with human MV4-11 cells at […], po measured up to 24 hrs by LC-MS/MS analysis; type: ADME, organism-based, Neoplasm; conditions: dose 1.5 mg/kg
[35] = test system: BaF3; experiment: cells; conditions: Mus musculus, BaF3, 72 h
[36] = Toxicity in NOD/SCID mouse assessed as effect on body weight at 20 mg/kg/day, po measured for 7 days; type: organism-based; conditions: in vivo, 168 h, time 7 day
[37] = test system: BaF3; experiment: Antiproliferative activity against mouse BaF3 cells harbouring FLT3-ITD-F691I mutant assessed as inhibition of cell growth incubated for 72 hrs by celltiter-glo luminescent cell viability assay; type: functional, cell-based; conditions: BaF3, 72 h
[38] = Cmax in mouse plasma at 10 mg/kg, po measured up to 24 hrs by LC-MS/MS analysis; type: ADME, organism-based
[39] = test system: SK-OV-3; experiment: cells; conditions: Homo sapiens, SK-OV-3, 72 h
Description: Antiproliferative activity against human SK-OV-3 cells assessed as inhibition of cell growth incubated for 72 hrs by celltiter-glo luminescent cell viability assay

[40] = Half life in NOD/SCID mouse plasma xenografted with human MV4-11 cells at 4.5 mg/kg, po measured up to 24 hrs by LC-MS/MS analysis; type: ADME, organism-based

inhibition [1]: inactive
CL/F [2]: 6.67 mL/min/kg
Tmax [3]: 1 h
Tmax [4]: 1 h
IC50 [5]: 0.11 µM
IC50 [7]: > 10 µM
IC50 [8]: > 10 µM
IC50 [9]: > 33.3 µM
AUC(0-t) at 24 h [10]: 4870 ng·h/mL
clearance [11]: 18.9 mL/min/kg
IC50 [12]: > 33.3 µM
IC50 [13]: 1.79 µM
IC50 [14]: > 10 µM
Vd [15]: 1.36 L/kg
AUC(0-t) at 24 h [16]: 8310 ng·h/mL
Tmax [17]: 6 h
IC50 [18]: > 10 µM
Vd [19]: 0.996 L/kg
bioavailability [20]: 50.3%
Cmax [21]: 1410 ng/mL
Tmax at 24 h [23]: 6 h
Cmax [24]: 199 ng/mL
Tmax [25]: 0.5 h
AUC(0-t) at 24 h [26]: 380 ng·h/mL
inhibition [27]: Dose-dependent-effect
half-life [28]: 13.1 h
Cmax [29]: 4720 ng/mL
bioavailability [30]: 67.9%
IC50 [31]: 0.0218 µM
IC50 [32]: > 33.3 µM
IC50 [33]: > 1 µM
AUC(0-t) at 24 h [34]: 1470 ng·h/mL
IC50 [35]: 0.0041 µM
IC50 [37]: 0.154 µM
Cmax [38]: 1660 ng/mL
IC50 [39]: > 10 µM
half-life [40]: 3.82 h
Structure (SMILES): CC(C)(C)c1cc(NC(=O)Nc2ccc(C#Cc3ccc(OCCCN4CCOCC4)cc3)cc2)no1
Activity [6]: 100%
Activity [22]: Non-toxic
Activity [36]: Non-toxic
